{"source": "patent US20220194952A1", "about": "“TETRAPYRROLIC CONJUGATES AND USES THEREOF FOR IMAGING” (Health Research, Inc., priority 2019, published 2022)", "key": {"Colon26 tumors [1]": {"test_system": "Colon26 tumors", "assay": "In vivo PDT efficacy", "parameters": "species or system BALB/c mice", "procedure": "Tumors were exposed to light (135 J/cm^2, 75 mW/cm^2) at 24 h (hour) postinjection (optimal time for tumor uptake for both the PSs).\nFor determining the in vivo imaging and therapeutic potential of 2, BALB/c mice (5-10 mice/group) bearing Colon26 tumors were used. In brief, 1×10^6 Colon26 cells were injected in mice subcutaneously. The tumors were left to grow for 1 week until they achieve the desired size (3-5 mm) for treatment. The photosensitizer was injected intravenously following the animal protocol approved by RPCI IACUC committee. Irradiance occurred 24 hours after i. v. injection; light dose was 135 J/cm^2 at a dose rate of 75 mW/cm^2 using the near-IR wavelengths of interest: 665 nm or 789 nm.\nTwo axes of the tumor (L, longest axis; W, shortest axis) were measured in millimeters with the aid of a Vernier caliper. Tumor weight (mg) was estimated as a formula: tumor weight=1/2 (L×W2). Tumor measurements were taken daily for the first 10 days and at least three tine a week for the first 4 weeks of post therapy and twice a week thereafter. Endpoints were 400 mm^3 tumor volume or 60 days."}, "[2]": {"assay": "Singlet oxygen NIR emission in O2-saturated C6D6 versus C60 standard", "format": "physicochemical", "settings": "O2-saturated C6D6, excitation 532 nm, emission at 1270 nm compared with C60", "from_the_text": "Excitation wavelength: 532 nm.\nAfter monitoring absorption characteristics in several organic and aqueous solvents, it was hypothesized that the aggregation state of 4 could have contributed in decreasing the fluorescence and singlet oxygen quantum yields. The quantum yield of singlet oxygen from 4 was ΦO2=0.31 determined by the comparison of the emission intensity at 1270 nm as compared with C60 used as a standard (ΦO2=0.96) (FIG. 5)."}, "Colon26 tumors [3]": {"test_system": "Colon26 tumors", "assay": "In vivo whole body tumor fluorescence imaging (IVIS Spectrum)", "parameters": "species or system BALB/c mice", "settings": "non-radioactive analogs, i.v., post-injection", "procedure": "Before evaluating in vivo PDT efficacy of PS 4 by exposing the tumors with light, the time point for optimal tumor uptake of PS was determined by whole body fluorescence imaging of tumored mice at various time points after injecting the PS.\nThe multi-spectral imaging system, IVIS Spectrum (Perkin-Elmer) along with Living Image (image acquisition and analysis software) was used. IVIS Spectrum has the capability to use either trans-illumination (from the bottom) or epi-illumination (from the top) to illuminate in vivo fluorescent sources. […] Regions of interest (ROI) were defined for areas of compound accumulation (tumor, liver, skin) and total and average signal within the region were recorded. Fluorescent intensity is expressed as the total radiant efficiency ([p/s]/[μW/cm^2]. Results are expressed as mean total radiant efficiency of three mice±SD."}, "[4]": {"assay": "Absorbance (UV-VIS) in methanol", "format": "physicochemical", "settings": "ε665 for 2 (peak 660 nm), ε785 for 4 (peak 785 nm)", "procedure": "Absorbance of 2 and 4 was measured using different concentrations in methanol on UV-VIS and indicates far-red peaks at 660 nm and 785 nm, with extinction coefficients ε665=47,500 L·mol^−1 cm^−1 and ε785=18,100 L·mol^−1 cm^−1 respectively.\nChemistry Methods: All reactions were carried out in heat gun-dried glassware under an atmosphere of nitrogen and magnetic stirring. Thin layer chromatography (TLC) was done on pre-coated silica gel sheets (layer thickness 0.2 mm). Column chromatography was performed either using silica gel 60 (70-230 mesh) or neutral alumina grade III. In some cases preparative TLC was used for the purification of compounds. Purity of the compounds was ascertained by TLC and HPLC analysis. All compounds including the intermediates were >95% pure. UV-visible spectra were recorded on FT UV-visible spectrophotometer using methanol as a solvent. Mass spectrometry analyses were performed at the Mass Spectrometry Facility, University at Buffalo, N.Y. Compounds 1 and 2 were synthesized by following the methodologies previously described."}}}
{"substance": "methyl 3-[1′-(m-iodobenzyloxy)ethyl]-3-devinyl-13^3-keto-13^2-methoxycyclohexene [Compound 4]", "values": [{"measurement": "PDT efficacy compared with 2 (in words)", "setting": "Colon26 tumors [1]; BALB/c mice bearing Colon26 tumors", "result": "far lower than that of 2"}, {"measurement": "tumor cure after PDT", "setting": "Colon26 tumors [1]; dose 1 μmol/kg, light 135 J/cm^2, 75 mW/cm^2 at 24 h postinjection, 5 mice/group", "result": "no tumor cure"}, {"measurement": "long-term PDT efficacy at higher drug doses (in words)", "setting": "Colon26 tumors [1]; higher drug doses than 1 μmol/kg, light 135 J/cm^2, 75 mW/cm^2 at 24 h", "result": "no significant long-term PDT efficacy"}, {"measurement": "quantum yield of singlet oxygen ΦO2", "setting": "[2]", "result": 0.31}, {"measurement": "time of optimal uptake in tumor (fluorescence imaging)", "setting": "Colon26 tumors [3]", "result": 24, "unit": "h"}, {"measurement": "extinction coefficient at far-red absorbance peak", "setting": "[4]", "result": "18,100 L·mol^−1 cm^−1"}]}
